Results: patent publication US20220274947A1, “NOVEL HETEROARYL-TRIAZOLE COMPOUNDS AS PESTICIDES” (Bayer Aktiengesellschaft, priority 2019, published 2022)

Legend:
Assay type in all cases: in vivo
Nezara viridula = Nezara viridula spray test; settings: in Hordeum vulgare, 96 h, barley plants, larvae, after 4 days; for mortality at 500 g/ha: application rate 500 g/ha; for mortality at 100 g/ha: application rate 100 g/ha
How it was run: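 Mortality was read at day 4 (0% = no kill, 100% = total kill) after spraying larva-infested barley plants. Test solutions were made from an acetone/DMF concentrate diluted with water holding 1000 ppm alkylarylpolyglycol ether emulsifier.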

Rhipicephalus microplus = assay: Rhipicephalus (Boophilus) microplus dip test (BOOPMI Dip); settings: 168 h, application rate 100 ppm, engorged adult female ticks, after 7 days, read-out: activity (efficacy: 100% means all eggs are infertile)
Method: Rhipicephalus (Boophilus) Microplus—Dip Test (BOOPMI Dip)
Test Animal: cattle ticks (Rhipicephalus microplus) strain parkhurst, SP-resistant Solvent: dimethyl sulfoxide
To produce a suitable preparation of active compound, 10 mg of active compound are dissolved in 0.5 mL solvent, and the concentrate is diluted with water to the desired concentration.
This compound solution is pipetted into tubes. 8-10 engorged, adult, female cattle ticks (Rhipicephalus microplus) are placed in perforated tubes. These tubes are immersed in the aqueous compound solution until the ticks are completely moistened. After the liquid has drained off, the ticks are transferred to a filter paper in a plastic tray and stored in a climate chamber.
After 7 days egg deposition of fertile eggs is monitored. Eggs where fertility is not visible are stored in a climate chamber till hatching after about 42 days. An efficacy of 100% means all eggs are infertile; 0% means all eggs are fertile.

Rhipicephalus sanguineus = Rhipicephalus sanguineus in-vitro contact test, adult brown dog ticks (RHIPSA Cont); settings: 48 h, after 48 hours, read-out: activity (efficacy: 100% means all ticks are dead or moribund); for pest or weed control at 5 µg/cm2, 500 g/ha: application rate 5 μg/cm^2 (=500 g/ha); for pest or weed control at 1 µg/cm2, 100 g/ha: application rate 1 μg/cm^2 (=100 g/ha)
How it was run: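 Compound in acetone was coated onto the inner walls of glass tubes and dried by rotation before adult brown dog ticks were exposed. Efficacy was scored at 48 h. Ticks unable to climb away from a 45–50 °C heating plate within 5 min counted as dead or moribund.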

[1] = tested on: Musca domestica strain WHO—N; assay: Musca domestica test (MUSCDO surface treatment & contact assay); settings: exposure 30 minutes, 24 hours after contact, read-out: efficacy (mortality); for mortality at 4 mg/m2: surface concentration 4 mg/m^2, glazed tile; for mortality at 20 mg/m2: surface concentration 20 mg/m^2, glazed tile
How it was run: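 Compound dissolved in acetone (2 mg/ml) with 2000 ppm rapeseed oil methyl ester and pipetted onto glazed tile; after acetone evaporation, adult flies exposed to dried surface for 30 minutes. Mortality (%) scored 24 hours after contact.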

[2] = tested on: Anopheles funestus strain FUMOZ-R; assay: Anopheles funestus test (ANPHFU surface treatment & contact assay); settings: exposure 30 minutes, 24 hours after contact, read-out: efficacy (mortality); for mortality at 4 mg/m2: surface concentration 4 mg/m^2, glazed tile; for mortality at 20 mg/m2: surface concentration 20 mg/m^2, glazed tile
How it was run: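 Adult FUMOZ-R mosquitoes were exposed 30 min to glazed tiles treated with compound in acetone plus 2000 ppm rapeseed oil methyl ester, after solvent evaporation. Percent mortality was scored 24 h after contact.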

[3] = tested on: Culex quinquefasciatus strain P00; assay: Culex quinquefasciatus test (CULXFA surface treatment & contact assay); settings: exposure 30 minutes, 24 hours after contact, read-out: efficacy (mortality); for mortality at 20 mg/m2: surface concentration 20 mg/m^2, glazed tile; for mortality at 4 mg/m2: surface concentration 4 mg/m^2, glazed tile
How it was run: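 Test compound in acetone (2 mg/ml) with 2000 ppm RME pipetted onto glazed tile; after acetone evaporation, adult strain P00 mosquitoes exposed to dried surface for 30 min. Mortality (%) scored 24 h after contact; 100% = all dead, 0% = none dead.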

Myzus persicae = Myzus persicae oral test; settings: 120 h, read-out: activity (mortality)
How it was run: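 Percent mortality was recorded at day 5, where 0% means no aphids killed. Compound prepared from an acetone concentrate diluted in water and combined with IPL41 medium containing sugar was offered to mixed-stage green peach aphids, which sucked it through a parafilm seal.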

[4] = tested on: Aedes aegypti strain MONHEIM; assay: Aedes aegypti test (AEDSAE surface treatment & contact assay); settings: exposure 30 minutes, 24 hours after contact, read-out: efficacy (mortality); for mortality at 4 mg/m2: surface concentration 4 mg/m^2, glazed tile; for mortality at 20 mg/m2: surface concentration 20 mg/m^2, glazed tile
How it was run: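 Compound dissolved in acetone (2 mg/ml) with 2000 ppm rapeseed oil methyl ester, pipetted onto glazed tile and dried. Adult mosquitoes exposed on the surface for 30 min; percent mortality scored 24 h after contact.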

CCc1nc([C@H](C)NC(=O)c2cc(Cl)cc(Cl)c2)n(-c2ccc(C#N)cn2)n1 [I-2]
mortality at 500 g/ha (Nezara viridula): 90%
pest or weed control at 100 ppm (Rhipicephalus microplus): 100%
pest or weed control at 5 µg/cm2, 500 g/ha (Rhipicephalus sanguineus): 100%
mortality at 4 mg/m2 [1]: 80 to 100%

C[C@H](NC(=O)c1cc(Cl)nc(C(F)(F)F)c1)c1ncnn1-c1ccc(C#N)cn1 [II-5]
mortality at 4 mg/m2 [2]: 80 to 100%
mortality at 20 mg/m2 [2]: 80 to 100%
mortality at 20 mg/m2 [3]: 80 to 100%
mortality at 100 g/ha (Nezara viridula): 90%
mortality at 500 g/ha (Nezara viridula): 100%
mortality at 4 ppm (Myzus persicae): 100%
pest or weed control at 100 ppm (Rhipicephalus microplus): 100%
mortality at 4 mg/m2 [4]: 80 to 100%
mortality at 20 mg/m2 [4]: 80 to 100%
pest or weed control at 1 µg/cm2, 100 g/ha (Rhipicephalus sanguineus): 100%
pest or weed control at 5 µg/cm2, 500 g/ha (Rhipicephalus sanguineus): 100%
mortality at 4 mg/m2 [1]: 80 to 100%
mortality at 20 mg/m2 [1]: 80 to 100%

C[C@H](NC(=O)c1cc(C(F)(F)F)cc(C(F)(F)F)c1)c1ncnn1-c1ccc(C(=O)N(C)C2CC2)cn1 [II-38, 6-(5-{(1S)-1-[3,5-bis(trifluoromethyl)benzamido]ethyl}-1H-1,2,4-triazol-1-yl)-N-cyclopropyl-N-methylnicotinamide]
mortality at 20 mg/m2 [2]: 80 to 100%
mortality at 20 mg/m2 [3]: 80 to 100%
mortality at 100 g/ha (Nezara viridula): 100%
mortality at 500 g/ha (Nezara viridula): 100%
mortality at 4 ppm (Myzus persicae): 100%
pest or weed control at 100 ppm (Rhipicephalus microplus): 80%
mortality at 4 mg/m2 [4]: 80 to 100%
mortality at 20 mg/m2 [4]: 80 to 100%
pest or weed control at 1 µg/cm2, 100 g/ha (Rhipicephalus sanguineus): 100%
pest or weed control at 5 µg/cm2, 500 g/ha (Rhipicephalus sanguineus): 100%

C[C@H](NC(=O)c1cc(Cl)cc(C(F)(F)F)c1)c1ncnn1-c1cc(-n2cncn2)ccn1 [II-43]
mortality at 20 mg/m2 [2]: 80 to 100%
mortality at 4 mg/m2 [3]: 80 to 100%
pest or weed control at 100 ppm (Rhipicephalus microplus): 100%
mortality at 4 mg/m2 [4]: 80 to 100%
mortality at 20 mg/m2 [4]: 80 to 100%
pest or weed control at 1 µg/cm2, 100 g/ha (Rhipicephalus sanguineus): 100%
pest or weed control at 5 µg/cm2, 500 g/ha (Rhipicephalus sanguineus): 100%
mortality at 20 mg/m2 [1]: 80 to 100%

Cc1nc([C@H](C)NC(=O)c2cc(Br)cc(OC(F)(F)F)c2)n(-c2ccc(C#N)cn2)n1 [II-47]
mortality at 20 mg/m2 [2]: 80 to 100%
mortality at 100 g/ha (Nezara viridula): 100%
mortality at 500 g/ha (Nezara viridula): 100%
mortality at 0.8 ppm (Myzus persicae): 100%
mortality at 4 ppm (Myzus persicae): 100%
pest or weed control at 100 ppm (Rhipicephalus microplus): 80%
mortality at 4 mg/m2 [4]: 80 to 100%
mortality at 20 mg/m2 [4]: 80 to 100%
pest or weed control at 1 µg/cm2, 100 g/ha (Rhipicephalus sanguineus): 100%
pest or weed control at 5 µg/cm2, 500 g/ha (Rhipicephalus sanguineus): 100%
mortality at 4 mg/m2 [1]: 80 to 100%
mortality at 20 mg/m2 [1]: 80 to 100%

Cc1nc([C@H](C)NC(=O)c2cc(Cl)cc(Br)c2)n(-c2ccc(C#N)cn2)n1 [II-50]
mortality at 4 mg/m2 [2]: 80 to 100%
mortality at 4 mg/m2 [3]: 80 to 100%
mortality at 0.8 ppm (Myzus persicae): 100%
mortality at 4 ppm (Myzus persicae): 100%
pest or weed control at 100 ppm (Rhipicephalus microplus): 100%
mortality at 4 mg/m2 [4]: 80 to 100%
mortality at 20 mg/m2 [4]: 80 to 100%
pest or weed control at 1 µg/cm2, 100 g/ha (Rhipicephalus sanguineus): 100%
pest or weed control at 5 µg/cm2, 500 g/ha (Rhipicephalus sanguineus): 100%
mortality at 4 mg/m2 [1]: 80 to 100%
mortality at 20 mg/m2 [1]: 80 to 100%

Cc1nc([C@H](C)NC(=O)c2cc(C#N)cc(C(F)(F)F)c2)n(-c2ccc(C#N)cn2)n1 [II-53]
mortality at 100 g/ha (Nezara viridula): 90%
mortality at 0.8 ppm (Myzus persicae): 100%
mortality at 4 ppm (Myzus persicae): 100%
pest or weed control at 100 ppm (Rhipicephalus microplus): 100%
mortality at 4 mg/m2 [4]: 80 to 100%
mortality at 20 mg/m2 [4]: 80 to 100%
pest or weed control at 1 µg/cm2, 100 g/ha (Rhipicephalus sanguineus): 80%
pest or weed control at 5 µg/cm2, 500 g/ha (Rhipicephalus sanguineus): 100%
mortality at 4 mg/m2 [1]: 80 to 100%
mortality at 20 mg/m2 [1]: 80 to 100%

Cc1nc([C@H](C)NC(=O)c2cncc(C(F)(F)F)c2)n(-c2ccc(C#N)cn2)n1 [II-63]
mortality at 20 mg/m2 [3]: 80 to 100%
mortality at 100 g/ha (Nezara viridula): 100%
mortality at 4 ppm (Myzus persicae): 100%
pest or weed control at 100 ppm (Rhipicephalus microplus): 100%
mortality at 4 mg/m2 [4]: 80 to 100%
mortality at 20 mg/m2 [4]: 80 to 100%
pest or weed control at 1 µg/cm2, 100 g/ha (Rhipicephalus sanguineus): 100%
pest or weed control at 5 µg/cm2, 500 g/ha (Rhipicephalus sanguineus): 100%
mortality at 20 mg/m2 [1]: 80 to 100%

C[C@H](NC(=O)c1cc(C(F)(F)F)cc(C(F)(F)F)c1)c1ncnn1-c1ccc(C(=O)N(C)CC2CC2)cn1 [II-73]
mortality at 100 g/ha (Nezara viridula): 100%
mortality at 500 g/ha (Nezara viridula): 100%
mortality at 4 ppm (Myzus persicae): 100%
pest or weed control at 100 ppm (Rhipicephalus microplus): 100%
pest or weed control at 1 µg/cm2, 100 g/ha (Rhipicephalus sanguineus): 100%
pest or weed control at 5 µg/cm2, 500 g/ha (Rhipicephalus sanguineus): 100%

CCN(C)C(=O)c1ccc(-n2nc(C)nc2[C@H](C)NC(=O)c2cc(C(F)(F)F)cc(C(F)(F)F)c2)nc1 [II-97]
mortality at 100 g/ha (Nezara viridula): 100%
mortality at 4 ppm (Myzus persicae): 100%
pest or weed control at 100 ppm (Rhipicephalus microplus): 100%
mortality at 20 mg/m2 [4]: 80 to 100%
pest or weed control at 1 µg/cm2, 100 g/ha (Rhipicephalus sanguineus): 100%
pest or weed control at 5 µg/cm2, 500 g/ha (Rhipicephalus sanguineus): 100%
mortality at 4 mg/m2 [1]: 80 to 100%
mortality at 20 mg/m2 [1]: 80 to 100%
